How the values were obtained:
[1] = tested on: rat liver microsomes; experiment: Metabolic stability in rat liver microsomes (RLM); details: for RLM (metabolized or not): last time point 120 min; for RLM, % (half-life as % vs. the related nondeuterated compound): values in square brackets are within 10% difference (assay's accuracy), no deuteration effect
[2] = biological target: T1, hrMAO-A (Homo sapiens, UniProt P21397); experiment: Metabolic stability in the presence of hrMAO-A; format: in vitro ADME; details: for MAO, % (half-life as % vs. the related nondeuterated compound) / MAO (metabolized or not): MAO-A assay; for MAO, % (half-life as % vs. the related nondeuterated compound): values in square brackets are within 10% difference (assay's accuracy), no deuteration effect; for MAO (metabolized or not): last time point 120 min
T1 construct: purchased XenoTech Lot# 8213001
T1 sequence (P21397 1-527): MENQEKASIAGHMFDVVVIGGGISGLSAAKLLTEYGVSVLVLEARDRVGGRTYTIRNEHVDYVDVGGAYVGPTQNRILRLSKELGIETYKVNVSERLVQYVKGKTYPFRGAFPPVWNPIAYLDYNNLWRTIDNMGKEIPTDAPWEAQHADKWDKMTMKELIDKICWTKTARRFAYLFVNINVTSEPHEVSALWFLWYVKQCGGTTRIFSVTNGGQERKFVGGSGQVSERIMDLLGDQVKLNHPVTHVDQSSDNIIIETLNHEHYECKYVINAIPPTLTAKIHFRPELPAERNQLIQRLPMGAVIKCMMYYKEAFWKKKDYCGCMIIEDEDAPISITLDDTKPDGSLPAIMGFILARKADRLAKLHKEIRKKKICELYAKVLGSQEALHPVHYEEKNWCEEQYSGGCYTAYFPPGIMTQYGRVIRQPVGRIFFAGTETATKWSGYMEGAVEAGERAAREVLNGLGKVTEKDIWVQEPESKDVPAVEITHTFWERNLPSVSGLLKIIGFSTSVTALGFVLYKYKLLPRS
Protocol: The reaction mixture was prepared as described below. The co-dosed TAs were added into the reaction mixture at a final concentration of 1 microM each. The positive control, kynuramine (25 microM), was run simultaneously with the TAs in a separate reaction. The reaction mixture (without TAs or kynuramine) was equilibrated in a shaking water bath at 37° C. for 5 minutes. The reaction was initiated by the addition of the TAs or kynuramine, and the mixture was incubated in a shaking water bath at 37° C. Aliquots (100 microL) of the TA reaction mixture were withdrawn at 0, 5, 10, 20, 30, 60, and 120 minutes. Aliquots (100 microL) of the positive control reaction mixture were withdrawn at 0 and 30 minutes. TA and kynuramine samples were immediately combined with 100 microL of ice-cold 100% MeCN containing 0.1% formic acid and IS to terminate the reaction. The samples were then mixed and centrifuged to precipitate proteins. All TA samples were assayed by LC-HRAMS. The PARR (analyte to IS) at each time point was compared to the PARR at time 0 to determine the percent remaining at each time point. Reaction composition: hrMAO 0.02 mg/mL; Potassium Phosphate, pH 7.4 100 mM; Magnesium Chloride 5 mM; Test Articles (each) 1 microM.

[3] = oral; cited from earlier work
[4] = Blood-to-plasma ratio (BPR), parent drug in brain and plasma of rats; format: in vivo, rat; details: % change vs. non-deuterated material
Protocol: (§1) The key PK parameters (presented as a % change vs. non-deuterated materials) are presented in Table 3 to include half-life (T½), area under the curve (AUC), bioavailability (F) and blood-to-plasma ration (BPR). Pharmacokinetics of the deuterated tryptamines was studied in rats. In a typical experiment, run as a cassette dosing, two groups of 5 Wistar female rats (200-250 g) with surgically inserted jugular vein catheter (Charles River, Andover, MA) were fasted for 12 h and then administered 5 mg/kg of the deuterated and 5 mg/kg of the related non-deuterated analog, by oral gavage or via a catheter for each group. At time points 0, 15, 30, 60 min, and 2, 4, 8, and 24 h, the resulting plasma was analyzed for the parent molecule using LC/MS spectroscopy. Two separate groups of 5 animals were used for determining blood-to-plasma ratio (BPR). Each group was sacrificed at time points 15 and 30 min, respectively, and the concentration of the parent drug was determined in the […] and plasma by LC/MS spectroscopy.

[5] = PK study in rats, cassette dosing; format: in vivo, rat; details: % change vs. non-deuterated material, 5 mg/kg, oral gavage or via catheter
Protocol: as §1

## C=CCN(CC=C)CCc1c[nH]c2ccccc12
[1]; RLM assay
  RLM (metabolized or not): R

## C=CCNCCc1c[nH]c2ccccc12
[1]; RLM assay
  RLM (metabolized or not): R

## [2H]C([2H])(Cc1c[nH]c2ccccc12)NC([2H])([2H])C([2H])([2H])[2H]
[2]
  MAO, % (half-life as % vs. the related nondeuterated compound): 170%

## [2H]C([2H])([2H])C([2H])([2H])NC([2H])([2H])C([2H])([2H])c1c[nH]c2cccc(O)c12
[1]; RLM assay
  RLM, % (half-life as % vs. the related nondeuterated compound): [93] %

## CCN(CC)CCc1c[nH]c2ccccc12
[1]; RLM assay
  RLM (metabolized or not): R

## [2H]C([2H])(c1c[nH]c2ccc(OC)cc12)C([2H])([2H])N(CC)CC
[1]; RLM assay
  RLM, % (half-life as % vs. the related nondeuterated compound): [95] %

## CCN(CC)CCc1c[nH]c2ccc(OC)cc12
[1]; RLM assay
  RLM (metabolized or not): R

## CCN(CC)CCc1c[nH]c2ccc(O)cc12
[1]; RLM assay
  RLM (metabolized or not): R

## CCN(CC)CCc1c[nH]c2cccc(OC)c12
[1]; RLM assay
  RLM (metabolized or not): R

## [2H]c1ccc2[nH]c([2H])c(CCN([2H])CC)c2c1O
[1]; RLM assay
  RLM (metabolized or not): R

## [2H]C([2H])(NCC)C([2H])([2H])c1c[nH]c2ccccc12
[2]
  MAO, % (half-life as % vs. the related nondeuterated compound): 140%

## CCNCCc1c[nH]c2ccccc12
[2]
  MAO (metabolized or not): R
[1]; RLM assay
  RLM (metabolized or not): R

## [2H]C([2H])(NCC)C([2H])([2H])c1c[nH]c2cccc(O)c12
[1]; RLM assay
  RLM, % (half-life as % vs. the related nondeuterated compound): [94] %

## CCNCCc1c[nH]c2cccc(O)c12
[1]; RLM assay
  RLM (metabolized or not): R

## CCN(C)CCc1c[nH]c2ccccc12
[2]
  MAO (metabolized or not): R
[1]; RLM assay
  RLM (metabolized or not): R

## CCN(C)CCc1c[nH]c2ccc(OC)cc12
[2]
  MAO (metabolized or not): R
[1]; RLM assay
  RLM (metabolized or not): R

## CCN(C)CCc1c[nH]c2ccc(O)cc12
[2]
  MAO (metabolized or not): R
[1]; RLM assay
  RLM (metabolized or not): R

## CCN(C)CCc1c[nH]c2cccc(OC)c12
[2]
  MAO (metabolized or not): R
[1]; RLM assay
  RLM (metabolized or not): R

## COc1ccc2[nH]cc(CCN(C)C)c2c1
[2]
  MAO (metabolized or not): R
[1]; RLM assay
  RLM (metabolized or not): R

## CN(C)CCc1c[nH]c2ccc(O)cc12
[2]
  MAO (metabolized or not): R
[1]; RLM assay
  RLM (metabolized or not): R

## [2H]C([2H])(c1c[nH]c2cccc(OC)c12)C([2H])([2H])N(C)C
[1]; RLM assay
  RLM, % (half-life as % vs. the related nondeuterated compound): 190%

## COc1cccc2[nH]cc(CCN(C)C)c12
[2]
  MAO (metabolized or not): R
[1]; RLM assay
  RLM (metabolized or not): R

## CNCCc1c[nH]c2ccccc12
[2]
  MAO (metabolized or not): R
[1]; RLM assay
  RLM (metabolized or not): R

## [2H]C([2H])(NC)C([2H])([2H])c1c[nH]c2cccc(O)c12
[1]; RLM assay
  RLM, % (half-life as % vs. the related nondeuterated compound): 160%

## CNCCc1c[nH]c2cccc(O)c12
[2]
  MAO (metabolized or not): R
[1]; RLM assay
  RLM (metabolized or not): R

## CC(C)NCCc1c[nH]c2ccccc12
[1]; RLM assay
  RLM (metabolized or not): R

## CC(C)NCCc1c[nH]c2cccc(O)c12
[1]; RLM assay
  RLM (metabolized or not): R

## [2H]C([2H])(c1c[nH]c2cccc(O)c12)C([2H])([2H])N(C(C)C)C(C)C
[1]; RLM assay
  RLM, % (half-life as % vs. the related nondeuterated compound): [97] %

## CC(C)N(CCc1c[nH]c2cccc(O)c12)C(C)C
[1]; RLM assay
  RLM (metabolized or not): R

## COc1cc(CCNCc2ccccc2OC)c(OC)cc1Cl [2C-C-NBOMe, 2-(4-Chloro-2,5-dimethoxyphenyl)-N-[(2-methoxyphenyl)methyl]ethan-l-amine]
[3]
  orally active dose, as low as: 25 µg
  very strong psychedelic doses: 500 to 700 µg

## [2H]C([2H])(Cc1c[nH]c2ccc(OC)cc12)N(C)C [5-MeO-DMT-α,α-d2]
[4]; rats sacrificed at 15 min
  BPR, 15 min, deuterium kinetic isotope effect (% change): 120%
[4]; rats sacrificed at 30 min
  BPR, 30 min, deuterium kinetic isotope effect (% change): 180%
[5]
  AUC, deuterium kinetic isotope effect (% change): 60%
  T½, deuterium kinetic isotope effect (% change): 30%

## [2H]C([2H])(Cc1c[nH]c2ccccc12)N(C)C [DMT-d2]
[2]; hrMAO-A, four test articles
  CLint: 0.126 mL/min/ mg protein
  % Remaining of Initial 0 min: 100%
[2]; hrMAO-A, four test articles, 60 min
  % Remaining of Initial 60 min: 76.0%
[1]; RLM, four test articles
  % Remaining of Initial 0 min: 100%
[1]; RLM, four test articles, 60 min
  % Remaining of Initial 60 min: 32.0%

## [2H]C([2H])(c1c[nH]c2ccccc12)C([2H])([2H])N(C)C [DMT-d4]
[2]; hrMAO-A, four test articles
  CLint: 0.119 mL/min/ mg protein
  % Remaining of Initial 0 min: 100%
[1]; RLM, four test articles
  % Remaining of Initial 0 min: 100%

## [2H]C([2H])([2H])N(C([2H])([2H])[2H])C([2H])([2H])C([2H])([2H])c1c[nH]c2ccccc12 [DMT-d10]
[2]; MAO-A enzymatic assay
  stability in the MAO-A enzymatic assay vs. less deuterated DMT analogs: superiority
[2]; hrMAO-A, d8 and d10 analogs of DMT
  % Remaining of Initial 0 min: 100.0%
[2]; hrMAO-A, d8 and d10 analogs of DMT, 5 min
  % Remaining of Initial 5 min: 99.0%
[2]; hrMAO-A, four test articles
  % Remaining of Initial 0 min: 100%
[1]; RLM, d8 and d10 analogs of DMT
  % Remaining of Initial 0 min: 100%
[1]; RLM, d8 and d10 analogs of DMT, 10 min
  % Remaining of Initial 10 min: 56.0%
[1]; RLM, four test articles
  % Remaining of Initial 0 min: 100%
[1]; rat liver microsomes
  metabolic stability vs. less deuterated DMT analogs: Further enhancement of metabolic stability

## [2H]c1[nH]c2c([2H])c([2H])c([2H])c([2H])c2c1C([2H])([2H])C([2H])([2H])N(C([2H])([2H])[2H])C([2H])([2H])[2H] [DMT-dis]
[1]; RLM assay, additional deuteration in the phenyl ring
  half-life compared to DMT-d10: no improvement in half-life

## CN(C)CCc1c[nH]c2ccccc12 [DMT]
[2]; hrMAO-A, four test articles
  CLint: 0.638 mL/min/ mg protein
  % Remaining of Initial 0 min: 100%
[1]; RLM, four test articles
  % Remaining of Initial 0 min: 100%
[1]; RLM, four test articles, 20 min
  % Remaining of Initial 20 min: 41.0%

From patent publication US20230066286A1, “DEUTERATED TRYPTAMINE DERIVATIVES AND METHODS OF USE” (priority 2020, published 2023)
